Measured values published in the OPERA property sets (Mansouri et al. 2018).

**Q.** Which melting point does the source give for CC(=O)[C@@]1(C)CC[C@H]2[C@@H]3CCC4=CC(=O)CCC4=C3CC[C@@]21C here?
**A.** 106 °C

**Q.** Which melting point does the source give for CCC(C)C(C(=O)OCC[N+](C)(CC)CC)c1ccccc1.[Br-] (configuration not stated) here?
**A.** 102 °C

**Q.** Which boiling point does the source give for CCC(=O)N(C)C here?
**A.** 174 °C

**Q.** What about the melting point of the same molecule?
**A.** -45 °C

**Q.** Which melting point does the source give for C#CC(=O)O here?
**A.** 9 °C

**Q.** Which log10 Koc (L/kg) does the source give for CCNc1nc(NC(C)C)nc(OC)n1 here?
**A.** 2.64

**Q.** What about the log10 vapour pressure (mmHg) of the same molecule?
**A.** -5.54

**Q.** For O=S(=O)(Sc1ccccc1)c1ccc(Cl)cc1, which melting point is on record?
**A.** -86.8 °C

**Q.** With Brc1cnc2ccccc2c1 as the molecule, how does the boiling point read?
**A.** 275 °C

**Q.** And the melting point?
**A.** 13.3 °C

**Q.** With C=C[C@H]1CN2CCC1C[C@@H]2[C@@H](O)c1ccnc2ccccc12 (some centres not stated) as the molecule, how does the melting point read?
**A.** 238 °C

**Q.** Which boiling point does the source give for ClC(Cl)c1ccccc1 here?
**A.** 205 °C

**Q.** What about the log10 vapour pressure (mmHg) of the same molecule?
**A.** -0.328

**Q.** What about the melting point of the same molecule?
**A.** -17 °C

**Q.** And the ready biodegradability?
**A.** readily biodegradable

**Q.** Which results are given for Cc1c(Cl)cccc1Nc1ccccc1C(=O)O?
**A.** melting point: 207 °C; ready biodegradability: not readily biodegradable

**Q.** Which melting point does the source give for CCCCCCCCCCCCCCCCCC(=O)OC[C@@H](O)[C@H]1OC[C@H](O)[C@H]1O here?
**A.** 57 °C

**Q.** For C=CCC(C)(O)CC=C, which boiling point is on record?
**A.** 158 °C

**Q.** For CC(=O)CCCC(C)C, which boiling point is on record?
**A.** 167 °C

**Q.** With Cc1ccc(N=C=O)cc1N=C=O as the molecule, how does the boiling point read?
**A.** 251 °C

**Q.** And the log10 vapour pressure (mmHg)?
**A.** -2.1

**Q.** And the melting point?
**A.** 20.5 °C

**Q.** What about the ready biodegradability of the same molecule?
**A.** not readily biodegradable

**Q.** For C=CCn1c(N)cc(=O)n(CC)c1=O, which melting point is on record?
**A.** 143 °C

**Q.** With O=C1c2ccc(O)c(O)c2C(=O)c2ccc(O)c(O)c21 as the molecule, how does the melting point read?
**A.** 340 °C

**Q.** Which melting point does the source give for COc1ccc2c3c([nH]c2c1)[C@H]1C[C@H]2[C@H](C[C@@H](O)[C@H](OC)[C@H]2C(=O)O)CN1CC3 here?
**A.** 242 °C

**Q.** For COP(=S)(OC)Oc1ccc(S(=O)(=O)N(C)C)cc1, which melting point is on record?
**A.** 53 °C

**Q.** What about the ready biodegradability of the same molecule?
**A.** readily biodegradable

**Q.** For Nc1c(Cl)cc([N+](=O)[O-])cc1[N+](=O)[O-], which ready biodegradability is on record?
**A.** not readily biodegradable

**Q.** For COC(=O)c1ccc(N)cc1, which melting point is on record?
**A.** 110 °C

**Q.** Which log10 vapour pressure (mmHg) does the source give for CC(C)C=CC(C)C here?
**A.** 1.64

**Q.** With CC(C)CCCC(C)CCCC(C)CCCCC(C)CCCC(C)CCCC(C)C (configuration not stated) as the molecule, how does the boiling point read?
**A.** 350 °C

**Q.** What about the log10 biodegradation half-life (days) of the same molecule?
**A.** 1.62

**Q.** And the melting point?
**A.** -38 °C

**Q.** Which results are given for CCCOCC?
**A.** boiling point: 63.2 °C; log10 vapour pressure (mmHg): 2.26; melting point: -128 °C

**Q.** With COc1cc(C=C2CCCC(=Cc3ccc(O)c(OC)c3)C2=O)ccc1O as the molecule, how does the melting point read?
**A.** 178 °C

**Q.** Which results are given for NC(=O)Nc1ccc(Br)cc1?
**A.** boiling point: 260 °C; log10 Koc (L/kg): 2.06; melting point: 226 °C

**Q.** For CCCC(C)(C)c1ccccc1, which boiling point is on record?
**A.** 206 °C

**Q.** Which ready biodegradability does the source give for CC(C)C(NC(N)=O)NC(N)=O here?
**A.** readily biodegradable

**Q.** Which melting point does the source give for O=c1cc[nH]c2cc(C(F)(F)F)ccc12 here?
**A.** 268 °C

**Q.** With Cc1cc(C(C)(C)C)cc(C)c1CC1=NCCN1 as the molecule, how does the melting point read?
**A.** 132 °C

**Q.** Which melting point does the source give for C1SCSCS1 here?
**A.** 220 °C

**Q.** With CCCC(C)OC(C)=O (configuration not stated) as the molecule, how does the boiling point read?
**A.** 130 °C

**Q.** What about the melting point of the same molecule?
**A.** -100 °C

**Q.** Which boiling point does the source give for C=COC=C here?
**A.** 28.3 °C

**Q.** What about the log10 vapour pressure (mmHg) of the same molecule?
**A.** 2.83

**Q.** And the melting point?
**A.** -101 °C

**Q.** With NC(=O)c1ccc([N+](=O)[O-])cc1Cl as the molecule, how does the melting point read?
**A.** 172 °C

**Q.** And the ready biodegradability?
**A.** readily biodegradable

**Q.** For COC1=CC(=O)O[C@@H](/C=C/c2ccccc2)C1, which melting point is on record?
**A.** 106 °C

**Q.** With CCOC(=O)COc1ccc2c(=O)cc(-c3ccccc3)oc2c1 as the molecule, how does the melting point read?
**A.** 124 °C

**Q.** Which boiling point does the source give for CCCCCCC here?
**A.** 98.5 °C

**Q.** And the log10 Koa?
**A.** 2.95

**Q.** What about the log10 biodegradation half-life (days) of the same molecule?
**A.** 0.845

**Q.** And the log10 vapour pressure (mmHg)?
**A.** 1.66

**Q.** And the melting point?
**A.** -90.6 °C

**Q.** What about the ready biodegradability of the same molecule?
**A.** readily biodegradable

**Q.** With COc1ccc(-c2ccccc2)cc1 as the molecule, how does the melting point read?
**A.** 90 °C

**Q.** For C#C[C@]1(OC(C)=O)CC[C@H]2[C@@H]3CCC4=C/C(=N/O)CC[C@@H]4[C@H]3CC[C@@]21CC, which melting point is on record?
**A.** 216 °C

**Q.** With O=C(O)[C@@]1(O)CC(O)[C@H](O)[C@H](O)C1 (some centres not stated) as the molecule, how does the melting point read?
**A.** 162 °C

**Q.** Which melting point does the source give for Cc1cc(C(=O)O)ccc1N here?
**A.** 170 °C

**Q.** For CCCCCN(CCCCC)CCCCC, which boiling point is on record?
**A.** 242 °C

**Q.** Which boiling point does the source give for CC(C)(C)[N+](=O)[O-] here?
**A.** 127 °C

**Q.** And the log10 vapour pressure (mmHg)?
**A.** 1.08

**Q.** What about the melting point of the same molecule?
**A.** 26.2 °C

**Q.** For C=C(C)CC1(CC)C(=O)NC(=S)NC1=O, which melting point is on record?
**A.** 160 °C

**Q.** Which melting point does the source give for CCN(CC)CCOC(=O)C(O)(c1ccccc1)c1ccccc1.Cl here?
**A.** 178 °C

**Q.** For CNc1ccc(Cl)cc1, which boiling point is on record?
**A.** 240 °C

**Q.** For CCCCCCCCCCC(=O)OCC, which log10 vapour pressure (mmHg) is on record?
**A.** -2.37

**Q.** And the melting point?
**A.** -15 °C

**Q.** With COc1ccc2c(c1O)[C@]13CCN(C)[C@H](C2)[C@@H]1C=CC(=O)C3 as the molecule, how does the melting point read?
**A.** 152 °C

**Q.** Which melting point does the source give for CCOC(=O)COC(=O)c1cc(Oc2ccc(C(F)(F)F)cc2Cl)ccc1[N+](=O)[O-] here?
**A.** 65 °C

**Q.** Which boiling point does the source give for CCCN(C(C)=O)c1ccccc1 here?
**A.** 268 °C

**Q.** What about the melting point of the same molecule?
**A.** 49 °C

**Q.** For CCS(=O)(=O)c1nnc(N(C)C(=O)NC)s1, which melting point is on record?
**A.** 156 °C

**Q.** For O=CN(O)CC(=O)O, which melting point is on record?
**A.** 120 °C

**Q.** With Clc1cccc(-c2ccccc2)c1 as the molecule, how does the boiling point read?
**A.** 284 °C

**Q.** And the log10 Henry constant (atm·m³/mol)?
**A.** -3.21

**Q.** And the log10 Koa?
**A.** 6.82

**Q.** And the log10 vapour pressure (mmHg)?
**A.** -2.13

**Q.** What about the melting point of the same molecule?
**A.** 16 °C

**Q.** With N#Cc1c(F)cccc1F as the molecule, how does the melting point read?
**A.** 31 °C

**Q.** Which boiling point does the source give for CCCCCCCCN here?
**A.** 180 °C

**Q.** What about the log10 vapour pressure (mmHg) of the same molecule?
**A.** -0.0137

**Q.** And the melting point?
**A.** 0 °C

**Q.** With O=C(O)C=Cc1cccc(Br)c1 as the molecule, how does the melting point read?
**A.** 178 °C

**Q.** For COc1cc2c3c(c4ccc(OC)c(OC)c4c2cc1OC)CN1CCC[C@H]1C3, which melting point is on record?
**A.** 220 °C
